Measurements reported in publication PMC10145446, “Developing a Formulation Strategy Coupled with PBPK Modeling and Simulation for the Weakly Basic Drug Albendazole” (Pharmaceutics, 2023).
Converted amounts (≈) assume the structure as drawn. Read-outs that look alike come from different tables or passages of the source.

How the values were obtained:
[1] = cited from earlier work
[2] = PBPK model simulation in Healthy Human Volunteer Population; settings: healthy volunteers, albendazole 400 mg oral
Description: Clinically observed plasma profiles of ABZ and ABZ_SO were digitized from a published study using WebPlotDigitizer (Version 4.2, Austin, TX, USA), and the systemic exposure parameters (Cmax, AUC) were used to verify the model. PBPK model simulations were performed using the Healthy Human Volunteer Population according to the design of the referenced clinical study: 10 subjects (6 male, 4 female), aged 21 to 44 years, single oral dose of albendazole (400 mg). Model verification was based on visual inspection of the simulated ABZ and ABZ_SO mean plasma versus time profiles compared to observed data, and the fold error (ratio of model predicted and observed values) for Cmax and AUC of ABZ and ABZ_SO.

[3] = parameters: method as in PMID 29403987; settings: healthy volunteers, single oral dose of albendazole 400 mg; ref [41]; cited from earlier work
[4] = parameters: method as in Literature; settings: ref Literature; cited from earlier work
[5] = Particle size distribution by laser diffraction; assay type: physicochemical; settings: pure ABZ
Description: Particle size distribution (PSD) data for the marketed formulation are not publicly available. […] The particle size distribution of ABZ was measured by laser diffraction using a Mastersizer 3000 equipped with Aero S (dry dispersion feeder unit). The instrument software was used to calculate d10, d50, and d90, representing the volume percentage or portion of particles below the 10th, 50th, and 90th percentiles, respectively. PSD was characterized as a Weibull distribution function, and the data were analyzed to estimate the Weibull parameter values and mean radiuses, which served as the input parameters in the model development.

[6] = parameters: method as in PMID 7571717; settings: in humans; ref [43]; cited from earlier work
[7] = Transfer system experiment (FaSSGF to FaSSIF) for precipitation kinetics; assay type: physicochemical; settings: for Precipitation rate constant (PRC): max. value
Description: These experiments were carried out in order to characterize the precipitation kinetics of ABZ in a system designed to mimic the physiologic conditions in the GI tract as the drug moves from the stomach to the small intestine, where precipitation is inevitable and limits the availability of the soluble drug for absorption. To simulate the impact on solubility when the drug transits from the stomach into the intestine, the experimental system (Figure 1) consisted of two physiologically relevant compartments with allowances for modifications in transfer rate (representing the GI emptying rate), paddle speeds (representing the hydrodynamics inside the GI tract), and composition (representing fasted vs. fed conditions). A conventional dissolution system (Distek 5100, Distek Inc., North Brunswick Township, NJ, USA) with a USP-II paddle method was utilized. The gastric compartment contained FaSSGF media (250 mL, pH 1.6), and FaSSIF media (500 mL, pH 6.5), which constituted the intestinal compartment. FaSSIF was prepared with a higher buffer capacity to minimize pH changes after the complete transfer of the simulated gastric media. The paddle speed was maintained at 100 rpm for both compartments. The transfer was initiated after 30 min at a constant rate of 7 mL/min using an Econo™ Gradient pump (Bio-Rad Laboratories, Inc., Hercules, CA, USA). The following experiments were carried out: (a) 40 mg of free ABZ base (neat API) to maintain the sink condition in the gastric media. (b) Marketed immediate-release formulation (equivalent to 40 mg of ABZ) to maintain the sink condition and to determine the effect of excipients on promoting the supersaturation state. (c) Marketed immediate-release tablet formulation (400 mg of ABZ).
The gastric compartment was sampled at 5, 15, and 30 min, at which time the transfer to the intestinal compartment was initiated. Then, samples were collected from the intestinal compartment for an additional 90 min (32, 35, 40, 45, 50, 60, 75, 90, 105, and 120 min). Samples were filtered through 0.45 µm PTFE filters and immediately diluted with the mobile phase before quantitative analysis by HPLC. All dissolution experiments were performed in triplicate.

[8] = Equilibrium solubility by shake flask method; assay type: physicochemical
Description: The equilibrium solubility of ABZ was measured by the shake flask method at 37 ± 2 °C in different pH solution systems: 0.1 N HCl (pH 1.20 ± 0.01 and pH 2.0 ± 0.01), 0.02 M acetate buffer (pH 4.5 ± 0.02), and 0.05 M phosphate buffer (pH 6.8 ± 0.01). Solubility was also determined in FaSSGF (pH 1.6 ± 0.01), FaSSIF (pH 6.5 ± 0.01), and FeSSIF (pH 5.0 ± 0.01) containing bile concentrations of 0.08 mM, 3 mM, and 15 mM, respectively. For each experiment, an excess amount of ABZ (~10 mg) was dispersed in 3 mL of solution. A sample was collected after 72 h and filtered using 0.45 µm polytetrafluoroethylene membrane disc filters (Pall Corp., New York, NY, USA). The samples were analyzed using a validated HPLC method. All experiments were performed in triplicate. The pH solubility profile and biorelevant solubility data for ABZ were analyzed using Simcyp™ In Vitro Data Analysis (SIVA, Certara UK Ltd., Sheffield, UK) software in order to estimate intrinsic solubility and the micelle-buffer partition coefficient (log Km:w). These parameter values were incorporated into the PBPK model for ABZ.

[9] = system: CYP3A4; settings: ref [36]; cited from earlier work
[10] = system: FMO3; settings: ref [36]; cited from earlier work
[11] = physchem; settings: aqueous pH solution systems (pH solubility profile), 37 °C, aqueous buffer, thermodynamic from solid
Description: The equilibrium solubility of ABZ was measured by the shake flask method at 37 ± 2 °C in different pH solution systems: 0.1 N HCl (pH 1.20 ± 0.01 and pH 2.0 ± 0.01), 0.02 M acetate buffer (pH 4.5 ± 0.02), and 0.05 M phosphate buffer (pH 6.8 ± 0.01). Solubility was also determined in FaSSGF (pH 1.6 ± 0.01), FaSSIF (pH 6.5 ± 0.01), and FeSSIF (pH 5.0 ± 0.01) containing bile concentrations of 0.08 mM, 3 mM, and 15 mM, respectively [25]. For each experiment, an excess amount of ABZ (~10 mg) was dispersed in 3 mL of solution. A sample was collected after 72 h and filtered using 0.45 µm polytetrafluoroethylene membrane disc filters (Pall Corp., New York, NY, USA). The samples were analyzed using a validated HPLC method. All experiments were performed in triplicate. The pH solubility profile and biorelevant solubility data for ABZ were analyzed using Simcyp™ In Vitro Data Analysis (SIVA, Certara UK Ltd., Sheffield, UK) software in order to estimate intrinsic solubility and the micelle-buffer partition coefficient (log Km:w). These parameter values were incorporated into the PBPK model for ABZ.
Data from dissolution experiments were used to estimate intrinsic solubility and bile-salt micelle-mediated solubilization using SIVA. Micelle buffer partition coefficients (log Km:w) for ABZ, both in neutral and ionic species of ABZ, were estimated using observed solubilities in biorelevant media.

## CCC[S+]([O-])c1ccc2[nH]c(NC(=O)OC)nc2c1 (stereo not shown) [ABZ_SO, albendazole sulfoxide]
[1]; PBPK input, ref [35]
  pKa1 (Ampholyte): 9.79
[1]; PBPK input, ref [38]
  Log Po:w: 1.17
[2]
  Fold error, AUC0–∞ (predicted parameter/observed parameter): 0.97
  Fold error, Cmax (predicted parameter/observed parameter): 1.01
[3]
  AUC0–∞ (observed): 3475 ng·h/mL
  Cmax (Observed): 193.5 ng/mL
[4]
  fu (fraction unbound in plasma): 0.3

## CCCSc1ccc2nc(NC(=O)OC)[nH]c2c1 [ABZ, Albendazole]
[5]; laser diffraction
  d10: 0.95 ± 0.10 µm
  d50: 4.1 ± 0.64 µm
  d90: 22 ± 1.3 µm
[5]; polydispersed
  Particle size distribution, Mean Radius: 7.52 µm
  Particle size distribution, Weibull Alpha: 1.014
  Particle size distribution, Weibull Beta: 8.732
[1]; PBPK input, ref [34]
  Log Po:w: 2.7
[1]; PBPK input, ref [35]
  pKa1 (Ampholyte): 10.3
  pKa2 (Ampholyte): 2.8
[1]; PBPK input, ref [35], listed as Albendazole
  pKa1 (Ampholyte): 10.26
[1]; low solubility and high permeability
  BCS class: BCS class II
[6]
  absolute oral bioavailability: < 5%
[7]; 40 mg dose, FaSSGF 250 mL pH 1.6
  dissolution in FaSSGF within 30 min: completely dissolved
[7]; 40 mg dose, FaSSIF pH 6.5
  precipitation upon transfer to FaSSIF: immediate precipitation
[7]; set from transfer experiment, FaSSIF
  Critical Supersaturation Ratio (CSR): 1
[7]; set from transfer experiment
  Precipitation rate constant (PRC): 1000 h⁻¹
[7]; set from transfer experiment, listed as Albendazole
  Precipitation rate constant (PRC): 1000 (max. value) 1/h
[2]
  Fold error, AUC0–∞ (predicted parameter/observed parameter): 1.13
  Fold error, Cmax (predicted parameter/observed parameter): 1.16
[8]; 0.02 M acetate buffer, 37 °C, pH 4.5, aqueous buffer, thermodynamic from solid, pH 4.5 Acetate buffer, 37 ± 2.0 °C, read-out: Solubility
  solubility at 72 h: 8 ± 2 µg/mL (≈ 30.2 µM)
[8]; 0.05 M phosphate buffer, 37 °C, pH 6.8, aqueous buffer, thermodynamic from solid, pH 6.8, read-out: solubility
  solubility at 72 h: ~5 µg/mL (≈ 18.8 µM)
[8]; 0.05 M phosphate buffer, 37 °C, pH 6.8, aqueous buffer, thermodynamic from solid, pH 6.8 Phosphate buffer, 37 ± 2.0 °C, read-out: Solubility
  solubility at 72 h: 5 ± 1 µg/mL (≈ 18.8 µM)
[8]; 0.1 N HCl, 37 °C, pH 1.2, simulated gastric fluid, thermodynamic from solid, pH 1.2, read-out: maximum solubility
  solubility at 72 h: ~500 µg/mL (≈ 1880 µM)
[8]; 0.1 N HCl, 37 °C, pH 1.2, simulated gastric fluid, thermodynamic from solid, pH 1.2 HCl buffer, 37 ± 2.0 °C, read-out: Solubility
  solubility at 72 h: 515 ± 45 µg/mL (≈ 1940 µM)
[8]; 0.1 N HCl, pH 2, pH 2.0 HCl buffer, 37 ± 2.0 °C, read-out: Solubility
  solubility at 72 h: 25 ± 5 µg/mL (≈ 94.2 µM)
[8]; FaSSGF, 37 °C, pH 1.6, fassgf or other biorelevant, thermodynamic from solid, FaSSGF (pH 1.6), 37 ± 2.0 °C, read-out: Solubility
  solubility at 72 h: 146 ± 12 µg/mL (≈ 550 µM)
[8]; FaSSGF, 37 °C, pH 1.6, fassgf or other biorelevant, thermodynamic from solid, FaSSGF, read-out: solubility
  solubility at 72 h: ~146 µg/mL (≈ 550 µM)
[8]; FaSSIF, 37 °C, pH 6.5, fassif, thermodynamic from solid, FaSSIF (pH 6.5), 37 ± 2.0 °C, read-out: Solubility
  solubility at 72 h: 8 ± 1 µg/mL (≈ 30.2 µM)
[8]; FaSSIF, 37 °C, pH 6.5, fassif, thermodynamic from solid, FaSSIF, read-out: solubility
  solubility at 72 h: 8.2 µg/mL (≈ 30.9 µM)
[8]; FeSSIF vs FaSSIF
  solubility in FeSSIF compared to FaSSIF: 2 fold
[8]; FeSSIF, pH 5, FeSSIF (pH 5.0), 37 ± 2.0 °C, read-out: Solubility
  solubility at 72 h: 21 ± 4 µg/mL (≈ 79.1 µM)
[8]; FeSSIF, pH 5, FeSSIF, read-out: solubility
  solubility at 72 h: ~20.5 µg/mL (≈ 77.3 µM)
[3]
  AUC0–∞ (observed): 53.0 ng·h/mL
  Cmax (Observed): 9.55 ng/mL
[9]
  Km: 10.1 µM
  Vmax: 369 pmol/min/pmol
[10]
  Km: 9.6 µM
  Vmax: 1103 pmol/min/pmol
[11]
  solubility at 72 h: 12 µg/mL (≈ 45.2 µM)
